Measured values: PubChem BioAssay (NCI)
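Growth conditions: 96-well plates. Treatment: test compound, 48 hours, 5 concentrations. Analysis: linear interpolation between bracketing concentrations; unreached endpoints set to highest concentration. TGI is the concentration that stops growth completely.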

How the values were obtained:
Assay in all cases: NCI-60 cell line screen, 48 h
786-0 renal = tested on: 786-0 renal
A498 renal = tested on: A498 renal
A549 NSCLC = tested on: A549 NSCLC
ACHN renal = tested on: ACHN renal
BT-549 breast = tested on: BT-549 breast
CAKI-1 renal = tested on: CAKI-1 renal
CCRF-CEM leukemia = tested on: CCRF-CEM leukemia
COLO 205 colon = tested on: COLO 205 colon
DU-145 prostate = tested on: DU-145 prostate
EKVX NSCLC = tested on: EKVX NSCLC
HCC-2998 colon = tested on: HCC-2998 colon
HCT-116 colon = tested on: HCT-116 colon
HCT-15 colon = tested on: HCT-15 colon
HOP-62 NSCLC = tested on: HOP-62 NSCLC
HOP-92 NSCLC = tested on: HOP-92 NSCLC
HS 578T breast = tested on: HS 578T breast
HT29 colon = tested on: HT29 colon
IGROV1 ovarian = tested on: IGROV1 ovarian
K-562 leukemia = tested on: K-562 leukemia
KM12 colon = tested on: KM12 colon
LOX IMVI melanoma = tested on: LOX IMVI melanoma
M14 melanoma = tested on: M14 melanoma
MALME-3M melanoma = tested on: MALME-3M melanoma
MCF7 breast = tested on: MCF7 breast
MDA-MB-231 breast = tested on: MDA-MB-231 breast
MDA-MB-435 = tested on: MDA-MB-435
MDA-N = tested on: MDA-N
MOLT-4 leukemia = tested on: MOLT-4 leukemia
NCI-H226 lung = tested on: NCI-H226 lung
NCI-H23 lung = tested on: NCI-H23 lung
NCI-H460 lung = tested on: NCI-H460 lung
NCI-H522 lung = tested on: NCI-H522 lung
NCI/ADR-RES ovarian = tested on: NCI/ADR-RES ovarian
OVCAR-3 ovarian = tested on: OVCAR-3 ovarian
OVCAR-4 ovarian = tested on: OVCAR-4 ovarian
OVCAR-5 ovarian = tested on: OVCAR-5 ovarian
OVCAR-8 ovarian = tested on: OVCAR-8 ovarian
PC-3 prostate = tested on: PC-3 prostate
RPMI-8226 leukemia = tested on: RPMI-8226 leukemia
RXF 393 renal = tested on: RXF 393 renal
SF-268 CNS = tested on: SF-268 CNS
SF-295 CNS = tested on: SF-295 CNS
SF-539 CNS = tested on: SF-539 CNS
SK-MEL-2 melanoma = tested on: SK-MEL-2 melanoma
SK-MEL-28 melanoma = tested on: SK-MEL-28 melanoma
SK-MEL-5 melanoma = tested on: SK-MEL-5 melanoma
SK-OV-3 ovarian = tested on: SK-OV-3 ovarian
SN12C renal = tested on: SN12C renal
SNB-19 CNS = tested on: SNB-19 CNS
SNB-75 CNS = tested on: SNB-75 CNS
SR leukemia = tested on: SR leukemia
SW-620 colon = tested on: SW-620 colon
T-47D breast = tested on: T-47D breast
TK-10 renal = tested on: TK-10 renal
U251 CNS = tested on: U251 CNS
UACC-257 melanoma = tested on: UACC-257 melanoma
UACC-62 melanoma = tested on: UACC-62 melanoma
UO-31 renal = tested on: UO-31 renal
HL-60(TB) leukemia = tested on: HL-60(TB) leukemia

## O=c1oc2ccccc2cc1-c1cn2ccccc2n1
786-0 renal
  TGI: 13.4 µM
A498 renal
  TGI: 6.49 µM
A549 NSCLC
  TGI: 21 µM
ACHN renal
  TGI: 11.4 µM
BT-549 breast
  TGI: 26.3 µM
CAKI-1 renal
  TGI: 20.5 µM
CCRF-CEM leukemia
  TGI: > 22.5 µM
COLO 205 colon
  TGI: > 100 µM
DU-145 prostate
  TGI: 21 µM
EKVX NSCLC
  TGI: 29.3 µM
HCC-2998 colon
  TGI: 39.4 µM
HCT-116 colon
  TGI: 30.1 µM
HCT-15 colon
  TGI: 38.9 µM
HOP-62 NSCLC
  TGI: 14.8 µM
HOP-92 NSCLC
  TGI: > 100 µM
HS 578T breast
  TGI: 53.5 µM
HT29 colon
  TGI: 51.7 µM
IGROV1 ovarian
  TGI: 26.3 µM
K-562 leukemia
  TGI: > 52.6 µM
KM12 colon
  TGI: 37.2 µM
LOX IMVI melanoma
  TGI: 33.4 µM
M14 melanoma
  TGI: 28.9 µM
MALME-3M melanoma
  TGI: 14.7 µM
MCF7 breast
  TGI: 30 µM
MDA-MB-231 breast
  TGI: 18.5 µM
MDA-MB-435
  TGI: 14.5 µM
MDA-N
  TGI: 19.8 µM
MOLT-4 leukemia
  TGI: > 80.8 µM
NCI-H226 lung
  TGI: 26.7 µM
NCI-H23 lung
  TGI: 29.6 µM
NCI-H460 lung
  TGI: 13.4 µM
NCI-H522 lung
  TGI: 17.3 µM
NCI/ADR-RES ovarian
  TGI: 11.9 µM
OVCAR-3 ovarian
  TGI: 14.3 µM
OVCAR-4 ovarian
  TGI: > 42.1 µM
OVCAR-5 ovarian
  TGI: 46.7 µM
OVCAR-8 ovarian
  TGI: 10.7 µM
PC-3 prostate
  TGI: 12.8 µM
RPMI-8226 leukemia
  TGI: 47.3 µM
RXF 393 renal
  TGI: 13.8 µM
SF-268 CNS
  TGI: 13.2 µM
SF-295 CNS
  TGI: 13.5 µM
SF-539 CNS
  TGI: 10.6 µM
SK-MEL-2 melanoma
  TGI: 14.4 µM
SK-MEL-28 melanoma
  TGI: 17.7 µM
SK-MEL-5 melanoma
  TGI: 20.1 µM
SK-OV-3 ovarian
  TGI: 15.6 µM
SN12C renal
  TGI: 17.7 µM
SNB-19 CNS
  TGI: 12.7 µM
SNB-75 CNS
  TGI: 6.37 µM
SR leukemia
  TGI: > 35.5 µM
SW-620 colon
  TGI: 31.6 µM
T-47D breast
  TGI: 34.6 µM
TK-10 renal
  TGI: 20.5 µM
U251 CNS
  TGI: 5.66 µM
UACC-257 melanoma
  TGI: 14.3 µM
UACC-62 melanoma
  TGI: 15.8 µM
UO-31 renal
  TGI: 7.02 µM

## O=C1NC(=O)C(c2c[nH]c3ccccc23)=C1c1cn(C(c2ccccc2)(c2ccccc2)c2ccccc2)cn1
786-0 renal
  TGI: 22.3 µM
A498 renal
  TGI: 18.3 µM
A549 NSCLC
  TGI: 12.8 µM
ACHN renal
  TGI: 26.6 µM
BT-549 breast
  TGI: 27.2 µM
CAKI-1 renal
  TGI: > 100 µM
CCRF-CEM leukemia
  TGI: 17.4 µM
COLO 205 colon
  TGI: 15 µM
DU-145 prostate
  TGI: 63.5 µM
EKVX NSCLC
  TGI: 19.4 µM
HCC-2998 colon
  TGI: 16 µM
HCT-116 colon
  TGI: 13.1 µM
HCT-15 colon
  TGI: 14.9 µM
HL-60(TB) leukemia
  TGI: 20.4 µM
HOP-92 NSCLC
  TGI: 21.9 µM
HS 578T breast
  TGI: 68.2 µM
HT29 colon
  TGI: 13.3 µM
IGROV1 ovarian
  TGI: 26.2 µM
K-562 leukemia
  TGI: 28.7 µM
KM12 colon
  TGI: 13.5 µM
LOX IMVI melanoma
  TGI: 22.2 µM
M14 melanoma
  TGI: 16.3 µM
MALME-3M melanoma
  TGI: 23.2 µM
MCF7 breast
  TGI: 17.7 µM
MDA-MB-231 breast
  TGI: 25.7 µM
MDA-MB-435
  TGI: 12.9 µM
MDA-N
  TGI: 17.9 µM
MOLT-4 leukemia
  TGI: 7.39 µM
NCI-H226 lung
  TGI: 19.9 µM
NCI-H23 lung
  TGI: 30.8 µM
NCI-H460 lung
  TGI: 14.6 µM
NCI-H522 lung
  TGI: 22.9 µM
NCI/ADR-RES ovarian
  TGI: 22 µM
OVCAR-3 ovarian
  TGI: 19.6 µM
OVCAR-4 ovarian
  TGI: 17.5 µM
OVCAR-5 ovarian
  TGI: 23.1 µM
OVCAR-8 ovarian
  TGI: 28.2 µM
PC-3 prostate
  TGI: 7.24 µM
RPMI-8226 leukemia
  TGI: 10.4 µM
RXF 393 renal
  TGI: 36.1 µM
SF-268 CNS
  TGI: 33.2 µM
SF-295 CNS
  TGI: 19.8 µM
SF-539 CNS
  TGI: 35.8 µM
SK-MEL-2 melanoma
  TGI: 25.6 µM
SK-MEL-28 melanoma
  TGI: 44.9 µM
SK-MEL-5 melanoma
  TGI: 20.8 µM
SK-OV-3 ovarian
  TGI: 57 µM
SN12C renal
  TGI: 20.3 µM
SNB-19 CNS
  TGI: 65.3 µM
SNB-75 CNS
  TGI: 22.1 µM
SR leukemia
  TGI: 6.78 µM
SW-620 colon
  TGI: 30 µM
T-47D breast
  TGI: 23.7 µM
TK-10 renal
  TGI: 36.5 µM
U251 CNS
  TGI: 15.3 µM
UACC-257 melanoma
  TGI: 26.6 µM
UACC-62 melanoma
  TGI: 30.1 µM

## CC(=O)N(CCc1ccccc1)C(C#N)c1ccccc1 (stereo unspecified)
786-0 renal
  TGI: > 100 µM
A498 renal
  TGI: > 100 µM
A549 NSCLC
  TGI: > 100 µM
ACHN renal
  TGI: > 100 µM
BT-549 breast
  TGI: > 100 µM
CAKI-1 renal
  TGI: > 100 µM
CCRF-CEM leukemia
  TGI: > 100 µM
COLO 205 colon
  TGI: > 100 µM
DU-145 prostate
  TGI: > 100 µM
EKVX NSCLC
  TGI: > 100 µM
HCC-2998 colon
  TGI: > 100 µM
HCT-116 colon
  TGI: > 100 µM
HCT-15 colon
  TGI: > 100 µM
HL-60(TB) leukemia
  TGI: > 100 µM
HOP-62 NSCLC
  TGI: > 100 µM
HS 578T breast
  TGI: > 100 µM
HT29 colon
  TGI: > 100 µM
IGROV1 ovarian
  TGI: > 100 µM
K-562 leukemia
  TGI: > 100 µM
KM12 colon
  TGI: > 100 µM
LOX IMVI melanoma
  TGI: > 100 µM
M14 melanoma
  TGI: > 100 µM
MALME-3M melanoma
  TGI: > 100 µM
MCF7 breast
  TGI: > 100 µM
MDA-MB-231 breast
  TGI: > 100 µM
MDA-MB-435
  TGI: > 100 µM
MDA-N
  TGI: > 100 µM
MOLT-4 leukemia
  TGI: > 100 µM
NCI-H226 lung
  TGI: > 100 µM
NCI-H23 lung
  TGI: > 100 µM
NCI-H522 lung
  TGI: > 100 µM
NCI/ADR-RES ovarian
  TGI: > 100 µM
OVCAR-3 ovarian
  TGI: > 100 µM
OVCAR-4 ovarian
  TGI: > 100 µM
OVCAR-5 ovarian
  TGI: > 100 µM
OVCAR-8 ovarian
  TGI: > 100 µM
PC-3 prostate
  TGI: > 100 µM
RPMI-8226 leukemia
  TGI: > 100 µM
RXF 393 renal
  TGI: > 100 µM
SF-268 CNS
  TGI: > 100 µM
SF-295 CNS
  TGI: > 100 µM
SF-539 CNS
  TGI: > 100 µM
SK-MEL-2 melanoma
  TGI: > 100 µM
SK-MEL-5 melanoma
  TGI: > 100 µM
SK-OV-3 ovarian
  TGI: > 100 µM
SN12C renal
  TGI: > 100 µM
SNB-19 CNS
  TGI: > 100 µM
SNB-75 CNS
  TGI: > 100 µM
SR leukemia
  TGI: > 100 µM
SW-620 colon
  TGI: > 100 µM
T-47D breast
  TGI: > 100 µM
TK-10 renal
  TGI: > 100 µM
U251 CNS
  TGI: > 100 µM
UACC-257 melanoma
  TGI: > 100 µM
UACC-62 melanoma
  TGI: > 100 µM
UO-31 renal
  TGI: > 100 µM
